Test results reported in BindingDB's records for doi:10.1111/cbdd.12840 (Miranda House, 2017).

Biological target: T1, Putative FAD-containing monooxygenase MymA (Mycobacterium tuberculosis (strain ATCC 25618 / H37Rv), UniProt P9WNF7)
T1 sequence (P9WNF7 whole entry): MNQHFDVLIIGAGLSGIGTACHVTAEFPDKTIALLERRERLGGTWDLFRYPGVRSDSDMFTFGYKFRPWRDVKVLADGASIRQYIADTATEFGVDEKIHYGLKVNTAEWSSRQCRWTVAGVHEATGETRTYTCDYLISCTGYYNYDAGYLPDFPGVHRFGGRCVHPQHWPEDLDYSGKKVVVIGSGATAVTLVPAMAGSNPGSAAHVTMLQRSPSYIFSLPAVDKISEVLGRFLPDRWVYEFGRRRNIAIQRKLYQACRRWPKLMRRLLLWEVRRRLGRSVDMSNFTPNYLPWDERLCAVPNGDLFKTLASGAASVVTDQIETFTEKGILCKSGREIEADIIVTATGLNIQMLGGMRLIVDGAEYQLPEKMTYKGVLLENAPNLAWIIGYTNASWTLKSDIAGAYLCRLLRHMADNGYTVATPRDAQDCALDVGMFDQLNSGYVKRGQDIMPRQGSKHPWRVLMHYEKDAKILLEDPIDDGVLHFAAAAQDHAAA
Test: MymA Inhibition Assay
Protocol: Inhibition of MymA activity by INH was checked using different concentrations (0-12 um) of INH, 100 um of trimeth-ylamine and 5 mg of MymA along with the other components in the enzyme assay as described above.

NNC(=O)c1ccncc1 [4-pyridinecarbohydrazide(Isoniazid)]
IC50: 4.9 µM
